# From US10039283B2, “Substituted pyrazolyl-nicotin(thio)amide derivatives and their use as fungicides” (BAYER CROPSCIENCE AKTIENGESELLSCHAFT, priority 2014, dated 2018)
# Test: Log P by HPLC on reversed phase, method [a], acidic range (0.1% formic acid)
# Assay type: physicochemical
# Settings: LC-UV, 0.1% formic acid in water and acetonitrile
row,SMILES,LogP
1,Cc1cccc(-n2ncc(NC(=O)c3ccc(Cl)nc3C(F)F)c2C)c1 [Example 68],2.73^[a]
2,Cc1cnc(C(F)F)c(C(=O)Nc2cnn(-c3ccccc3Cl)c2C)c1 [Example 69],2.17^[a]
3,Cc1c(NC(=O)c2ccc(Cl)nc2C(F)F)cnn1-c1ccccc1Cl [Example 70],2.56^[a]
4,Cc1cnc(C(F)F)c(C(=O)Nc2cnn(-c3ccc(Cl)cc3)c2C)c1 [Example 71],2.49^[a]
5,Cc1c(NC(=O)c2ccc(Cl)nc2C(F)F)cnn1-c1ccc(Cl)cc1 [Example 72],2.86^[a]
6,Cc1ccccc1-n1ncc(NC(=O)c2cccnc2C(F)F)c1C(F)(F)F [Example 73],2.71^[a]
7,O=C(Nc1cnn(-c2ccccc2Br)c1C(F)(F)F)c1cccnc1C(F)F [Example 74],2.71^[a]
8,Cc1nn(-c2ccccc2)c(Cl)c1NC(=O)c1cccnc1C(F)F [Example 75],2.08^[a]
9,COc1c(NC(=O)c2cccnc2C(F)F)c(C)nn1-c1ccccc1 [Example 76],1.88^[a]
10,O=C(Nc1cnn(-c2ccccc2C(F)(F)F)c1-c1cccc(Cl)c1)c1cccnc1C(F)F [Example 78],3.06^[a]
11,O=C(Nc1cnn(-c2ccccc2Cl)c1-c1ccccc1)c1cccnc1C(F)F [Example 79],2.53^[a]
12,O=C(Nc1cnn(-c2ccccc2Cl)c1-c1ccc(Cl)cc1)c1cccnc1C(F)F [Example 80],2.90^[a]
13,O=C(Nc1cnn(-c2ccccc2Cl)c1-c1cccc(Cl)c1)c1cccnc1C(F)F [Example 81],2.88^[a]
14,O=C(Nc1cnn(-c2ccccc2Cl)c1-c1cccc(F)c1)c1cccnc1C(F)F [Example 82],2.66^[a]
15,O=C(Nc1cnn(-c2ccccc2Cl)c1-c1ccc(F)cc1)c1cccnc1C(F)F [Example 83],2.66^[a]
16,O=C(Nc1cnn(-c2cccc(Cl)c2)c1C(F)(F)F)c1cccnc1C(F)F [Example 84],3.00^[a]
17,O=C(Nc1cnn(-c2cccc(C(F)(F)F)c2)c1C(F)(F)F)c1cccnc1C(F)F [Example 85],3.19^[a]
18,Cc1cccc(-n2ncc(NC(=O)c3cccnc3C(F)F)c2C(F)(F)F)c1 [Example 86],2.73^[a]
19,Cc1ccc(-n2ncc(NC(=O)c3cccnc3C(F)F)c2C(F)(F)F)cc1 [Example 87],2.86^[a]
20,O=C(Nc1cnn(-c2ccccc2F)c1C(F)(F)F)c1cccnc1C(F)F [Example 88],2.55^[a]
21,O=C(Nc1cnn(-c2ccc(F)cc2)c1C(F)(F)F)c1cccnc1C(F)F [Example 89],2.64^[a]

row,SMILES,LogP
1,CC(C)c1ccc(-n2ncc(NC(=O)c3cccnc3C(F)F)c2C(F)(F)F)cc1 [Example 90],3.55^[a]
2,O=C(Nc1cnn(-c2c(Cl)cccc2Cl)c1C(F)(F)F)c1cccnc1C(F)F [Example 91],2.94^[a]
3,O=C(Nc1cnn(-c2cc(Cl)cc(Cl)c2)c1C(F)(F)F)c1cccnc1C(F)F [Example 92],3.64^[a]
4,O=C(Nc1cnn(-c2ccc(Cl)cc2Cl)c1C(F)(F)F)c1cccnc1C(F)F [Example 93],3.27^[a]
5,O=C(Nc1cnn(-c2cccc(Cl)c2Cl)c1C(F)(F)F)c1cccnc1C(F)F [Example 94],3.11^[a]
6,O=C(Nc1cnn(-c2cc(Cl)ccc2Cl)c1C(F)(F)F)c1cccnc1C(F)F [Example 95],3.15^[a]
7,O=C(Nc1cnn(-c2ccc(Cl)c(Cl)c2)c1C(F)(F)F)c1cccnc1C(F)F [Example 96],3.51^[a]
8,O=C(Nc1cnn(Cc2ccccc2)c1C(F)(F)F)c1cccnc1C(F)F [Example 97],2.71^[a]
9,COc1c(NC(=O)c2cccnc2C(F)F)cnn1-c1ccccc1 [Example 98],1.82^[a]
10,CCc1c(NC(=O)c2cccnc2C(F)F)cnn1-c1ccc(C)cc1 [Example 99],2.34^[a]
11,CCc1c(NC(=O)c2cccnc2C(F)F)cnn1-c1cccc(C)c1 [Example 100],2.34^[a]
12,Cc1ccc(-n2ncc(NC(=O)c3cc(C)cnc3C(F)F)c2C(F)(F)F)cc1 [Example 101],3.13^[a]
13,CC(C)c1c(NC(=O)c2cccnc2C(F)F)cnn1-c1ccc(Cl)cc1 [Example 102],2.62^[a]
14,CC(C)c1c(NC(=O)c2cccnc2C(F)F)cnn1-c1cccc(Cl)c1 [Example 103],2.60^[a]
15,CCc1c(NC(=O)c2cccnc2C(F)F)cnn1-c1ccccc1C [Example 104],2.18^[a]
16,CCc1c(NC(=O)c2cccnc2C(F)F)cnn1-c1ccc(Cl)cc1 [Example 105],2.48^[a]
17,Cc1ccccc1-n1ncc(NC(=O)c2cccnc2C(F)F)c1C(C)C [Example 106],2.37^[a]
18,CCc1c(NC(=O)c2cccnc2C(F)F)cnn1-c1cccc(Cl)c1 [Example 107],2.48^[a]
19,Cc1ccc(-n2ncc(NC(=O)c3cccnc3C(F)F)c2C(C)C)cc1 [Example 108],2.48^[a]
20,CC(C)c1c(NC(=O)c2cccnc2C(F)F)cnn1-c1ccccc1Cl [Example 109],2.35^[a]
21,CCc1c(NC(=O)c2cccnc2C(F)F)cnn1-c1ccccc1Cl [Example 110],2.17^[a]

row,SMILES,LogP
1,Cc1c(NC(=O)c2cccnc2C(F)F)cnn1-c1ccccc1C(F)(F)F [Example 111],2.08^[a]
2,Cc1ccc(-n2ncc(NC(=O)c3cccnc3C(F)F)c2C)cc1 [Example 112],2.10^[a]
3,Cc1c(NC(=O)c2cccnc2C(F)F)cnn1-c1cccc(C(F)(F)F)c1 [Example 113],2.48^[a]
4,Cc1c(NC(=O)c2cccnc2C(F)F)cnn1-c1ccc(C(F)(F)F)cc1 [Example 114],2.53^[a]
5,Cc1ccccc1-n1ncc(NC(=O)c2cccnc2C(F)F)c1C [Example 115],1.93^[a]
6,Cc1cccc(-n2ncc(NC(=O)c3cccnc3C(F)F)c2C(C)C)c1 [Example 116],2.50^[a]
7,CCc1c(NC(=O)c2cccnc2C(F)F)cnn1-c1cccc(C(F)(F)F)c1 [Example 117],2.69^[a]
8,CCc1c(NC(=O)c2cccnc2C(F)F)cnn1-c1ccc(C(F)(F)F)cc1 [Example 118],2.76^[a]
9,CCc1c(NC(=O)c2cccnc2C(F)F)cnn1-c1ccccc1 [Example 119],2.01^[a]
10,CC(C)c1c(NC(=O)c2cccnc2C(F)F)cnn1-c1ccccc1 [Example 120],2.15^[a]
11,CCCc1c(NC(=O)c2cccnc2C(F)F)cnn1-c1ccccc1 [Example 121],2.28^[a]
12,CCCCn1ncc(NC(=O)c2cccnc2C(F)F)c1CC [Example 122],2.00^[a]
13,CCCCn1ncc(NC(=O)c2cccnc2C(F)F)c1C(C)C [Example 123],2.18^[a]
14,CCc1c(NC(=O)c2cccnc2C(F)F)cnn1CCC(C)C [Example 124],2.32^[a]
15,CC(C)CCn1ncc(NC(=O)c2cccnc2C(F)F)c1C(C)C [Example 125],2.53^[a]
16,CCC(C)n1ncc(NC(=O)c2cccnc2C(F)F)c1C (stereo not drawn) [Example 126],1.63^[a]
17,CCc1c(NC(=O)c2cccnc2C(F)F)cnn1C(CC)CC [Example 127],2.20^[a]
18,O=C(Nc1cnn(-c2ccc(F)cc2)c1-c1cccc(Cl)c1)c1cccnc1C(F)F [Example 128],2.92^[a]
19,O=C(Nc1cnn(-c2ccccc2C(F)(F)F)c1-c1ccccc1)c1cccnc1C(F)F [Example 129],2.70^[a]
20,O=C(Nc1cnn(-c2ccccc2C(F)(F)F)c1-c1ccc(F)cc1)c1cccnc1C(F)F [Example 130],2.80^[a]
21,O=C(Nc1cnn(-c2ccccc2C(F)(F)F)c1-c1cccc(F)c1)c1cccnc1C(F)F [Example 131],2.80^[a]

row,SMILES,LogP
1,O=C(Nc1cnn(-c2ccccc2C(F)(F)F)c1-c1ccc(Cl)cc1)c1cccnc1C(F)F [Example 132],3.04^[a]
2,Cc1cnc(C(F)F)c(C(=O)Nc2cnn(-c3ccc(Br)cc3)c2C)c1 [Example 133],2.59^[a]
3,Cc1c(NC(=O)c2cccnc2C(F)F)cnn1-c1ccc(Br)cc1 [Example 134],2.34^[a]
4,O=C(Nc1cnn(-c2ccccc2)c1Br)c1cccnc1C(F)F [Example 135],2.07^[a]
5,COc1cnc(C(F)F)c(C(=O)Nc2cnn(-c3ccc(Cl)c(Cl)c3)c2C(F)(F)F)c1 [Example 136],3.76^[a]
6,O=C(Nc1cnn(-c2ccccc2)c1Cl)c1cccnc1C(F)F [Example 137],2.07^[a]
7,Cc1cnc(C(F)F)c(C(=O)Nc2cnn(-c3cccc(Cl)c3)c2C(F)(F)F)c1 [Example 138],3.25^[a]
8,Cc1cnc(C(F)F)c(C(=O)Nc2cnn(-c3cccc(C(F)(F)F)c3)c2C(F)(F)F)c1 [Example 139],3.39^[a]
9,Cc1cnc(C(F)F)c(C(=O)Nc2cnn(-c3ccccc3F)c2C(F)(F)F)c1 [Example 140],2.77^[a]
10,Cc1cnc(C(F)F)c(C(=O)Nc2cnn(-c3ccc(F)cc3)c2C(F)(F)F)c1 [Example 141],2.86^[a]
11,Cc1cnc(C(F)F)c(C(=O)Nc2cnn(-c3ccc(C(C)C)cc3)c2C(F)(F)F)c1 [Example 142],3.78^[a]
12,N#Cc1c(NC(=O)c2cccnc2C(F)F)cnn1-c1ccccc1 [Example 143],2.28^[a]
13,O=C(Nc1cnn(-c2cccc(Cl)c2Cl)c1C(F)(F)F)c1ccc(Br)nc1C(F)F [Example 144],3.80^[a]
14,O=C(Nc1cnn(-c2ccc(Cl)cc2)c1C(F)(F)F)c1ccc(Br)nc1C(F)F [Example 145],3.73^[a]
15,O=C(Nc1cnn(-c2ccccc2F)c1-c1cccc(F)c1)c1cccnc1C(F)F [Example 146],2.51^[a]
16,O=C(Nc1cnn(-c2ccccc2F)c1-c1ccc(F)cc1)c1cccnc1C(F)F [Example 147],2.51^[a]
17,O=C(Nc1cnn(-c2ccccc2F)c1-c1ccccc1)c1cccnc1C(F)F [Example 148],2.39^[a]
18,O=C(Nc1cnn(-c2ccccc2F)c1-c1ccc(Cl)cc1)c1cccnc1C(F)F [Example 149],2.73^[a]
19,O=C(Nc1cnn(-c2ccc(Br)cc2)c1Br)c1cccnc1C(F)F [Example 150],2.67^[a]
20,O=C(Nc1cnn(-c2ccc(Br)cc2)c1Cl)c1cccnc1C(F)F [Example 151],3.47^[a]
21,COc1c(NC(=O)c2cccnc2C(F)F)cnn1-c1ccc(Br)cc1 [Example 152],2.40^[a]
